These are literature values, as cited in patent US20180326089A1, “PROTEIN NANOSTRUCTURE BASED DRUG DELIVERY SYSTEM FOR THE DELIVERY OF THERAPEUTIC AGENTS TO THE ANTERIOR SEGMENT OF THE EYE” (Council of Scientific & Industrial Research, priority 2015, published 2018).

Molecules are shown by their SMILES.

For `CC(=O)N1CCN(c2ccc(OCC3COC(Cn4ccnc4)(c4ccc(Cl)cc4Cl)O3)cc2)CC1` (stereo not shown) [Ketoconazole], the water solubility entry was “poorly water soluble”.
